How the values were obtained:
[1] = Oxygen radical absorbance capacity assay (ORAC); assay type: biochemical; details: tested both individually and in solution
Protocol: Azo-initiators are considered to produce the peroxyl radical by heating, which damages the fluorescent molecule, resulting in the loss of fluorescence. Antioxidants are considered to protect the fluorescent molecule from the oxidative degeneration. By quantifying the decay of fluorescence using a fluorometer, the degree of protection is determined comparing with a standard control antioxidant Trolox. […] Equipment that can automatically measure and calculate the capacity is commercially available, such as the VarioSkan flash microplate reader from Thermo Scientific. To test samples by using ORAC, compounds are dissolved into water-based NaH2PO4 buffer.

Solubility in water = assay type: physicochemical

Compound | influence of hydrotrope on the capacity of antioxidant compounds [1] | solubility in water (Solubility in water)
Cn1c(=O)c2c(ncn2C)n(C)c1=O [caffeine] | no influence | –
NC(=O)c1cccnc1 [nicotinamide] | no influence | –
O=C(O)[C@H]1O[C@@H](Oc2cc3oc(-c4ccccc4)cc(=O)c3c(O)c2O)[C@H](O)[C@@H](O)[C@@H]1O [baicalin] | – | very low

Source: US9072919B2, “Synergistic antioxidant cosmetic compositions containing at least one of baicalin and taxifolin, at least one of caffeine and nicotinamide, at least one of vitamin C and resveratrol and ferulic acid” (priority 2012, dated 2015)
